Laboratory results from ChEMBL document CHEMBL4342417, “Design, synthesis and evaluation of novel phenothiazine derivatives as inhibitors of breast cancer stem cells” (Eur J Med Chem, 2019).

Columns and labels:
[1] = tested on: MDA-MB-231; experiment: Potency index, ratio of IC50 of TFP to IC50 of compound for antiproliferative activity against human MDA-MB-231 cells assessed as reduction in cell viability incubated for 2 days by MTT assay; type: functional
[2] = tested on: MDA-MB-231; experiment: Antiproliferative activity against human MDA-MB-231 cells assessed as reduction in cell viability incubated for 2 days by MTT assay; type: functional, cell-based; conditions: MDA-MB-231, 48 h
[3] = tested on: MCF7; experiment: Antiproliferative activity against human MCF7 cells assessed as reduction in cell viability incubated for 2 days by MTT assay; type: functional, cell-based; conditions: MCF7, 48 h
[4] = tested on: SK-BR-3; experiment: Antiproliferative activity against human SKBR3 cells assessed as reduction in cell viability incubated for 2 days by MTT assay; type: functional, cell-based; conditions: SK-BR-3, 48 h
[5] = tested on: SUM-159-PT; experiment: Antiproliferative activity against human SUM159 cells assessed as reduction in cell viability incubated for 2 days by MTT assay; type: functional, cell-based; conditions: 48 h
[6] = tested on: SK-BR-3; experiment: Potency index, ratio of IC50 of TFP to IC50 of compound for antiproliferative activity against human SKBR3 cells assessed as reduction in cell viability incubated for 2 days by MTT assay; type: functional
[7] = tested on: MCF7; experiment: Potency index, ratio of IC50 of TFP to IC50 of compound for antiproliferative activity against human MCF7 cells assessed as reduction in cell viability incubated for 2 days by MTT assay; type: functional
[8] = Toxicity in zebra fish assessed as survival rate at 250 uM observed for 24 hrs; parameters: species or system Danio rerio; conditions: zebrafish
[9] = tested on: KG-1a; experiment: Antiproliferative activity against human KG1a cells assessed as reduction in cell viability incubated for 2 days by MTT assay; type: functional, cell-based; conditions: 48 h
[10] = tested on: SUM-159-PT; experiment: Potency index, ratio of IC50 of TFP to IC50 of compound for antiproliferative activity against human SUM159 cells assessed as reduction in cell viability incubated for 2 days by MTT assay; type: functional

| SMILES | IC50 [2] [µM] | IC50 [3] [µM] | IC50 [4] [µM] | Ratio IC50 [1] | IC50 [5] [µM] | Ratio IC50 [6] | Ratio IC50 [7] | survival at 24 h, 250 µM [8] [%] | IC50 [9] [µM] | Ratio IC50 [10] |
| --- | --- | --- | --- | --- | --- | --- | --- | --- | --- | --- |
| O=C(CCC(=O)N1CCN(CCCN2c3ccccc3Sc3ccc(C(F)(F)F)cc32)CC1)OCCCCOc1no[n+]([O-])c1S(=O)(=O)c1ccccc1 | 10.2 | 1.35 | 64.6 | – | 2.93 | – | 4 - 13 | 19.4 | 2.93 | 6 - 15 |
| O=C1CC(c2ccc(O)cc2)Oc2cc(O)c(CN3CCN(CCCN4c5ccccc5Sc5ccc(C(F)(F)F)cc54)CC3)c(O)c21 (stereo not given) | > 50 | > 50 | > 50 | – | 25 | – | – | – | – | – |
| O=C(CCC(=O)N1CCN(CCCN2c3ccccc3Sc3ccc(C(F)(F)F)cc32)CC1)NCCOc1no[n+]([O-])c1S(=O)(=O)c1ccccc1 | 6.04 | 6.96 | 1.77 | 4 - 15 | 1.98 | 4 - 9 | – | – | – | 9 |
| O=C(CCC(=O)N1CCN(CCCN2c3ccccc3Sc3ccc(C(F)(F)F)cc32)CC1)OCCOc1no[n+]([O-])c1S(=O)(=O)c1ccccc1 | 7.09 | 1.36 | 1.51 | – | 2.2 | – | – | 25.8 | 2.2 | – |
| CSc1ccc2c(c1)N(CCCN1CCN(Cc3c(O)cc4c(c3O)C(=O)CC(c3ccc(O)cc3)O4)CC1)c1ccccc1S2 (stereo not given) | > 50 | > 50 | > 50 | – | 32.2 | – | – | – | – | – |
| O=C(CCC(=O)N1CCN(CCCN2c3ccccc3Sc3ccc(C(F)(F)F)cc32)CC1)OCCOCCOc1no[n+]([O-])c1S(=O)(=O)c1ccccc1 | 3.12 | 3.31 | 10.1 | 7 | 3.36 | – | 3 | – | – | 4 - 9 |
| CSc1ccc2c(c1)N(CCCN1CCN(Cc3c(O)cc4c(c3O)C(=O)CC(c3ccccc3)O4)CC1)c1ccccc1S2 (stereo not given) | > 50 | > 50 | > 50 | – | > 50 | – | – | – | – | – |
| CSc1ccc2c(c1)N(CCCN1CCN(C(=O)CCC(=O)OCCOc3no[n+]([O-])c3S(=O)(=O)c3ccccc3)CC1)c1ccccc1S2 | 3.82 | 1.85 | 3.86 | – | 1.2 | – | – | 32.3 | 1.2 | – |
| O=C1CC(c2ccccc2)Oc2cc(O)c(CN3CCN(CCCN4c5ccccc5Sc5ccc(C(F)(F)F)cc54)CC3)c(O)c21 (stereo not given) | > 50 | > 50 | > 50 | – | > 50 | – | – | – | – | – |
| CSc1ccc2c(c1)N(CCCN1CCN(C(=O)CCC(=O)OCCCCOc3no[n+]([O-])c3S(=O)(=O)c3ccccc3)CC1)c1ccccc1S2 | 3.62 | 0.84 | 9.72 | 6 | 1.14 | – | 4 - 13 | 25.8 | 1.14 | 6 - 15 |
| O=C(CCC(=O)N1CCN(CCCN2c3ccccc3Sc3ccc(C(F)(F)F)cc32)CC1)OCC#CCOc1no[n+]([O-])c1S(=O)(=O)c1ccccc1 | 5.89 | 7.26 | 18 | – | 5.44 | – | – | – | – | – |

Second part, led by results:

| IC50 [2] [µM] | IC50 [3] [µM] | IC50 [4] [µM] | SMILES | Ratio IC50 [1] | IC50 [5] [µM] | Ratio IC50 [6] | Ratio IC50 [7] | survival at 24 h, 250 µM [8] [%] | IC50 [9] [µM] | Ratio IC50 [10] |
| --- | --- | --- | --- | --- | --- | --- | --- | --- | --- | --- |
| 3.41 | 12.2 | 2.68 | CSc1ccc2c(c1)N(CCCN1CCN(C(=O)CCC(=O)NCCOc3no[n+]([O-])c3S(=O)(=O)c3ccccc3)CC1)c1ccccc1S2 | 4 - 15 | 9.34 | 4 - 9 | – | – | – | – |
| 20.2 | 4.32 | 2.63 | CSc1ccc2c(c1)N(CCCN1CCN(C(=O)CCC(=O)OCC#CCOc3no[n+]([O-])c3S(=O)(=O)c3ccccc3)CC1)c1ccccc1S2 | – | 3.97 | 6 | – | – | – | – |
| 14.8 | 12.2 | 3.13 | O=C(CCC(=O)N1CCN(CCCN2c3ccccc3Sc3ccccc32)CC1)OCCOCCOc1no[n+]([O-])c1S(=O)(=O)c1ccccc1 | – | 1.95 | 4 | – | – | – | 4 - 9 |
| > 50 | > 50 | > 50 | OCCN(CCO)CCCN1c2ccccc2Sc2ccccc21 | – | > 50 | – | – | – | – | – |
| > 50 | > 50 | > 50 | O=C1CC(c2ccccc2)Oc2cc(O)c(CN3CCN(CCCN4c5ccccc5Sc5ccccc54)CC3)c(O)c21 (stereo not given) | – | > 50 | – | – | – | – | – |
| 3.06 | 11.9 | 3.91 | CSc1ccc2c(c1)N(CCCN1CCN(C(=O)CCC(=O)OCCOCCOc3no[n+]([O-])c3S(=O)(=O)c3ccccc3)CC1)c1ccccc1S2 | 7 | 4.31 | 4 | – | – | – | 4 - 9 |
| > 50 | > 50 | > 50 | O=C1CC(c2ccc(O)cc2)Oc2cc(O)c(CN3CCN(CCCN4c5ccccc5Sc5ccccc54)CC3)c(O)c21 (stereo not given) | – | > 50 | – | – | – | – | – |
| > 50 | > 50 | > 50 | COCCN(CCCN1c2ccccc2Sc2ccc(C(F)(F)F)cc21)CCOC | – | 29.9 | – | – | – | – | – |
| 10.3 | 36.7 | 27.2 | CSc1ccc2c(c1)N(CCCN(CCO)CCO)c1ccccc1S2 | – | 24.6 | – | – | – | – | – |
| 6.4 | 1.55 | 8.89 | O=C(CCC(=O)N1CCN(CCCN2c3ccccc3Sc3ccccc32)CC1)OCC#CCOc1no[n+]([O-])c1S(=O)(=O)c1ccccc1 | – | 2.85 | – | 7 | – | – | – |
| 45.1 | 29.8 | > 50 | COCCN(CCCN1c2ccccc2Sc2ccccc21)CCOC | – | 35.3 | – | – | – | – | – |
| 40.5 | 6.09 | 31.9 | COCCN(CCCN1c2ccccc2Sc2ccc(SC)cc21)CCOC | – | 18.3 | – | – | – | – | – |
| 1.43 | 5.58 | 4.01 | O=C(CCC(=O)N1CCN(CCCN2c3ccccc3Sc3ccccc32)CC1)NCCOc1no[n+]([O-])c1S(=O)(=O)c1ccccc1 | 4 - 15 | 4.17 | 4 - 9 | – | – | – | 4 |
| 6.09 | 33.6 | 43.2 | OCCN(CCO)CCCN1c2ccccc2Sc2ccc(C(F)(F)F)cc21 | – | 46 | – | – | – | – | – |
| 14.2 | – | 18.2 | CSc1ccc2c(c1)N(CCC1CCCCN1C)c1ccccc1S2 (stereo not given) [THIORIDAZINE] | – | 14.5 | – | – | – | 6.01 | – |
